Measured values from patent publication US5409950A, “Cyclic ketal derivatives” (Glaxo Group Limited, priority 1991, dated 1995).

Target: T1, squalene synthase (Rattus norvegicus, UniProt Q02769)
T1 construct: incubating rat liver homogenate with various concentrations of the test compound; from tissue; host or cells: rat liver homogenate
T1 sequence (Q02769 1-416): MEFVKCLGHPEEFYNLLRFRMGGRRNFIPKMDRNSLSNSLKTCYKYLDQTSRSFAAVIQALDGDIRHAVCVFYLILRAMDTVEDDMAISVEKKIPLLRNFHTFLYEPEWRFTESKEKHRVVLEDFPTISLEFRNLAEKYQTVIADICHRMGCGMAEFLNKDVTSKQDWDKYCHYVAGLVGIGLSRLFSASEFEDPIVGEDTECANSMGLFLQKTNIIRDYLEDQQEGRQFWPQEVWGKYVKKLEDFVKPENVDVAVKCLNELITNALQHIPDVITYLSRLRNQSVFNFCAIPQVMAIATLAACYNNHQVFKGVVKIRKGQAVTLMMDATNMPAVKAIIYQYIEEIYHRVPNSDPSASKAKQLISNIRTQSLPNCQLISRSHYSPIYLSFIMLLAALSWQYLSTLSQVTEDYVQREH
Test: Inhibition of squalene synthase in rat liver homogenate
Assay type: biochemical
Conditions: [2-14C] farnesylpyrophosphate as substrate, 30 minute assay, read-out: IC50 (concentration of compound giving 50% inhibition of [14C] squalene production)
Experimental: Acta, Volume 877, 50-60 (1986) and modified to include measurement of cholesterol by high performance liquid chromatography (h.p.l.c.).
[^14 C] Squalene was separated from unreacted substrate on thin layer chromatography plates and determined by liquid scintillation counting. Inhibition of squalene synthase was quantified by incubating rat liver homogenate with various concentrations of the test compound in the presence of [2-^14 C] farnesylpyrophosphate. The concentration of compound giving 50% inhibition of [^14 C] squalene production in a 30 minute assay was taken as the IC50 value.

| SMILES | IC50 [nM] |
| --- | --- |
| C=C(CC[C@]12O[C@H](C(=O)O)[C@@](O)(C(=O)O)[C@](C(=O)O)(O1)[C@H](OC(=O)CC(O)CCC(C)CC)[C@H]2O)[C@@H](OC(C)=O)[C@H](C)Cc1ccccc1 (some centres unmarked) [Compound L] | < 100 |
| C=C(CC[C@]12O[C@H](C(=O)O)[C@@](O)(C(=O)O)[C@](C(=O)O)(O1)[C@H](OC(=O)CC(O)C(C)CC(C)CC)[C@H]2O)[C@@H](O)[C@H](C)Cc1ccccc1 (some centres unmarked) [Compound M] | < 100 |
| C=C(CC[C@]12O[C@H](C(=O)O)[C@@](O)(C(=O)O)[C@](C(=O)O)(O1)[C@H](OC(=O)/C=C/[C@@H](C)C[C@@H](C)CC)[C@H]2O)C(O)C(CO)Cc1ccccc1 (some centres unmarked) [Compound N] | < 100 |
| C=C(CC[C@@]12C[C@@H](OC(=O)/C=C/[C@@H](C)C[C@@H](C)CC)[C@@](C(=O)O)(O1)[C@](O)(C(=O)O)[C@@H](C(=O)O)O2)[C@@H](OC(C)=O)[C@H](C)Cc1ccccc1 [Compound O, [1S-[1α(4R*,5S*),3α,4β,5α,6α(2E,4R*,6R*)]]1-4-acetyloxy-5-methyl-3-methylene-6-phenylhexyl)-4,6-dihydroxy-2,8-dioxabicyclo[3.2.1]octane-3,4,5-tricarboxylic acid, 6-(4,6-dimethyl-2-octenoate)] | < 100 |
| CC[C@H](C)C[C@H](C)/C=C/C(=O)O[C@@H]1[C@@H](O)[C@@]2(CC/C(=C\C(C)Cc3ccccc3)CNC(C)=O)O[C@H](C(=O)O)[C@@](O)(C(=O)O)[C@]1(C(=O)O)O2 (some centres unmarked) [Compound T] | < 100 |
| C=C(CC[C@]12O[C@H](C(=O)O)[C@@](O)(C(=O)O)[C@](C(=O)O)(O1)[C@H](OC(=O)CCC(C)CC(C)CC)[C@H]2O)[C@@H](OC(C)=O)[C@H](C)Cc1ccccc1 (some centres unmarked) [Compound U] | < 100 |
| C=C(CC[C@@]12O[C@H](C(=O)O)[C@@](O)(C(=O)O)[C@@](C(=O)O)(C[C@H]1O)O2)[C@@H](OC(C)=O)[C@H](C)Cc1ccccc1 [Compound V, [1S-[1α(4R*,5S*),3α,4β,5α,7β]]1-(4-acetyloxy-5-methyl-3-methylene-6-phenylhexyl)-4,7-dihydroxy-2,8-dioxabicyclo[3.2.1]octane-3,4,5-tricarboxylic acid] | < 100 |
| C=C(CC[C@]12O[C@H](C(=O)O)[C@@](O)(C(=O)O)[C@](C(=O)O)(O1)[C@H](OC(=O)CC(O)CCC(C)CC)[C@H]2O)[C@@H](O)[C@H](C)Cc1ccccc1 (some centres unmarked) [Compound W] | < 100 |

Second part, the compound after the results:

| IC50 [nM] | SMILES |
| --- | --- |
| < 100 | CC[C@H](C)C[C@H](C)/C=C/C(=O)O[C@@H]1[C@@H](O)[C@@]2(CC/C(C)=C/C(C)Cc3ccccc3)O[C@H](C(=O)O)[C@@](O)(C(=O)O)[C@]1(C(=O)O)O2 (some centres unmarked) [Compound A1] |
| < 100 | C=C(CC[C@]12O[C@H](C(=O)O)[C@@](O)(C(=O)O)[C@](C(=O)O)(O1)[C@H](OC(=O)/C=C/[C@@H](C)C[C@@H](C)CC)[C@H]2O)C(NC(C)=O)C(C)Cc1ccccc1 (some centres unmarked) [Compound B1] |
| < 100 | C=C(CC[C@]12O[C@H](C(=O)O)[C@@](O)(C(=O)O)[C@](C(=O)O)(O1)[C@H](OC(=O)/C=C/[C@@H](C)C[C@@H](C)CC)[C@H]2O)[C@@H](O)[C@H](C)Cc1ccccc1 [Compound B, [1S-[1α(4R*,5S*),3α,4β,5α,6α(2E,4R*,6R*),7 β9]1-(4-hydroxy-5-methyl-3-methylene-6-phenylhexyl)-4,6,7-trihydroxy-2,8-dioxabicyclo[3.2.1]octane-3,4,5-tricarboxylic acid, 6-(4,6-dimethyl-2-octenoate)] |
| < 100 | C=C(CC[C@]12O[C@H](C(=O)O)[C@@](O)(C(=O)O)[C@](C(=O)O)(O1)[C@H](OC(=O)/C=C/C(C)(O)CC(C)CC)[C@H]2O)[C@@H](O)[C@H](C)Cc1ccccc1 (some centres unmarked) [Compound C1] |
| < 100 | C=C(CC[C@]12O[C@H](C(=O)OC)[C@@](O)(C(=O)O)[C@](C(=O)O)(O1)[C@H](OC(=O)/C=C/[C@@H](C)C[C@@H](C)CC)[C@H]2O)[C@@H](O)[C@H](C)Cc1ccccc1 [Compound E, [1S-[1α(4R*,5S*),3α,4β,5α,6α(2E,4R*,6R*),7β]]1-(4-hydroxy-5-methyl-3-methylene-6-phenylhexyl)-4,6,7-trihydroxy-2,8-dioxabicyclo[3.2.1]octane-3,4,5-tricarboxylic acid, 6-(4,6-dimethyl-2-octenoate), 3-methyl ester] |
| < 100 | C=C(CC[C@]12O[C@H](C(=O)O)[C@@](O)(C(=O)O)[C@](C(=O)O)(O1)[C@H](OC(=O)/C=C/C(C)CCCC)[C@H]2O)[C@@H](OC(C)=O)[C@H](C)Cc1ccccc1 (some centres unmarked) [Compound G] |
| < 100 | C=C(CC[C@]12O[C@H](C(=O)O)[C@@](O)(C(=O)O)[C@](C(=O)O)(O1)[C@H](OC(=O)/C=C/C(C)=C/C(C)CC)[C@H]2O)[C@@H](OC(C)=O)[C@H](C)Cc1ccccc1 (some centres unmarked) [Compound H] |
| < 100 | C=C(CC[C@]12O[C@H](C(=O)O)[C@@](O)(C(=O)O)[C@](C(=O)O)(O1)[C@H](OC(=O)CC(O)C(C)CC(C)CC)[C@H]2O)[C@@H](OC(C)=O)[C@H](C)Cc1ccccc1 (some centres unmarked) [Compound I] |
| < 100 | C=C(CC[C@]12O[C@H](C(=O)O)[C@@](O)(C(=O)O)[C@](C(=O)O)(O1)[C@H](OC(=O)/C=C/C(C)(O)CC(C)CC)[C@H]2O)[C@@H](OC(C)=O)[C@H](C)Cc1ccccc1 (some centres unmarked) [Compound K] |
